Data published in patent US8367732B2, “Di-fluoro containing compounds as cysteine protease inhibitors” (Virobay, Inc., priority 2006, dated 2013).

Tests used:
Assay type in all cases: biochemical
Human cathepsin S = Human cathepsin S (Homo sapiens, UniProt P25774); experiment: Cathepsin S Assay; settings: apparent inhibition constant; substrate Z-Val-Val-Arg-AMC; pH 6.5
Procedure: (§1) Solutions of test compounds in varying concentrations were prepared in 10 μL of dimethyl sulfoxide (DMSO) and then diluted into assay buffer (40 μL, comprising: MES, 50 mM (pH 6.5); EDTA, 2.5 mM; and NaCl, 100 mM); β-mercaptoethanol, 2.5 mM; and BSA, 0.00%. Human cathepsin S (0.05 pMoles in 25 μL of assay buffer) was added to the dilutions. The assay solutions were mixed for 5-10 seconds on a shaker plate, covered and incubated for 30 min at room temperature. Z-Val-Val-Arg-AMC (4 nMoles in 25 μL of assay buffer containing 10% DMSO) was added to the assay solutions and hydrolysis was followed spectrophotometrically (at λ 460 nm) for 5 min. Apparent inhibition constants (Ki) were calculated from the enzyme progress curves using standard mathematical models.

Human cathepsin L = Human cathepsin L (Homo sapiens, UniProt P07711); experiment: Cathepsin L Assay; settings: apparent inhibition constant; substrate Z-Phe-Arg-AMC; pH 5.5
Sequence of Human cathepsin L (P07711 114-333): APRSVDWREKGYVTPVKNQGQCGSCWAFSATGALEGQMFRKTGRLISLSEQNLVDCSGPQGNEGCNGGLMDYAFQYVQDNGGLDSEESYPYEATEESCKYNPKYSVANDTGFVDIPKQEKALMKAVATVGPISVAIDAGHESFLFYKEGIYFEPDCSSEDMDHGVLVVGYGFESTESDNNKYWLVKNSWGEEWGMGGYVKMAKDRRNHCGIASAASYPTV
Procedure: (§2) Solutions of test compounds in varying concentrations were prepared in 10 μL of dimethyl sulfoxide (DMSO) and then diluted into assay buffer (40 μL, comprising: MES, 50 mM (pH 5.5); EDTA, 2.5 mM; and DTT, 2.5 mM). Human cathepsin L (0.05 pMoles in 25 μL of assay buffer) was added to the dilutions. The assay solutions were mixed for 5-10 seconds on a shaker plate, covered and incubated for 30 min at room temperature. Z-Phe-Arg-AMC (1 nMoles in 25 μL of assay buffer) was added to the assay solutions and hydrolysis was followed spectrophotometrically at (λ 460 nm) for 5 min. Apparent inhibition constants (Ki) were calculated from the enzyme progress curves using standard mathematical models.

Human cathepsin F = molecular target: T1, Human cathepsin F (Homo sapiens, UniProt Q9UBX1); experiment: Cathepsin F Assay; settings: apparent inhibition constant; substrate Z-Phe-Arg-AMC; pH 6.5
T1 sequence (Q9UBX1 271-484): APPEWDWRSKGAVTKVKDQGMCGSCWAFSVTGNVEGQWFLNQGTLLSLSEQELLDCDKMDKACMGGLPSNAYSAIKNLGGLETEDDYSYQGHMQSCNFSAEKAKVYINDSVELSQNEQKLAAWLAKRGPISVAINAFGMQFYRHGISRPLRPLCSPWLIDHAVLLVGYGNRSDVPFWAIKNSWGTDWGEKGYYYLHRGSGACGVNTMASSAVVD
Procedure: as §1, with “DTT,” for “β-mercaptoethanol,”, “0.01%.” for “0.00%.”, “F (0.1” for “S (0.05”, “Z-Phe-Arg-AMC (2” for “Z-Val-Val-Arg-AMC (4”

Human cathepsin B = Human cathepsin B (Homo sapiens, UniProt P07858); experiment: Cathepsin B Assay; settings: apparent inhibition constant; substrate Z-FR-AMC; pH 6
Procedure: as §2, with “N,N-bis(2-hydroxyethyl)-2-aminoethanesulfonic acid (BES),” for “MES,”, “6); polyoxyethylenesorbitan monolaurate, 0.05%;” for “5.5); EDTA, 2.5 mM;”, “dithiothreitol (DTT),” for “DTT,”, “B (0.025” for “L (0.05”, “Z-FR-AMC (20” for “Z-Phe-Arg-AMC (1”

Sequence of Human cathepsin S (P25774 115-331): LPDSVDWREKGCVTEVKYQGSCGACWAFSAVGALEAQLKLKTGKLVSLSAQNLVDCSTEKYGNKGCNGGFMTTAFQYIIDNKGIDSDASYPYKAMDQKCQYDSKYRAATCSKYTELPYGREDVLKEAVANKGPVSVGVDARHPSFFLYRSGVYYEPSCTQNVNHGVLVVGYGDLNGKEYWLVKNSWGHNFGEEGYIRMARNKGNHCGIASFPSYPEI

Work on `CC(C)CC(F)(F)C[C@H](N[C@@H](c1ccc(F)cc1)C(F)(F)F)C(=O)NC1(C#N)CC1` yielded a Ki (Human cathepsin S) of under 0.02 µM, a Ki (Human cathepsin L) of 0.021 to 0.5 µM and a Ki (Human cathepsin F) of 0.021 to 0.5 µM. It also gave a Ki (Human cathepsin B) of 0.021 to 0.5 µM.

For `N#CC1(NC(=O)[C@H](CC(F)(F)c2ccccc2)N[C@@H](c2ccc(F)cc2)C(F)(F)F)CC1`, the Ki (Human cathepsin S) was under 0.02 µM, the Ki (Human cathepsin L) was 0.5 to 5 µM and the Ki (Human cathepsin F) was over 5 µM. It also gave a Ki (Human cathepsin B) of over 5 µM.

Compound `CCCC(F)(F)C[C@H](N[C@@H](c1ccc(F)cc1)C(F)(F)F)C(=O)NC1(C#N)CC1` has a Ki (Human cathepsin S) of under 0.02 µM, a Ki (Human cathepsin L) of 0.021 to 0.5 µM and a Ki (Human cathepsin F) of 0.021 to 0.5 µM. For the same compound, the Ki (Human cathepsin B) was 0.021 to 0.5 µM.

Work on `CCC(F)(F)C[C@H](N[C@@H](c1ccc(F)cc1)C(F)(F)F)C(=O)NC1(C#N)CC1` yielded a Ki (Human cathepsin S) of under 0.02 µM, a Ki (Human cathepsin L) of 0.021 to 0.5 µM and a Ki (Human cathepsin F) of 0.021 to 0.5 µM. For the same compound, the Ki (Human cathepsin B) was 0.021 to 0.5 µM.

Work on `N#CC1(NC(=O)[C@H](CC(F)(F)CC2CC2)N[C@@H](c2ccc(F)cc2)C(F)(F)F)CC1` yielded a Ki (Human cathepsin S) of under 0.02 µM, a Ki (Human cathepsin L) of 0.021 to 0.5 µM and a Ki (Human cathepsin F) of 0.021 to 0.5 µM. The Ki (Human cathepsin B) was 0.021 to 0.5 µM.

With `N#CC1(NC(=O)[C@H](CC(F)(F)Cc2ccccc2)N[C@@H](c2ccc(F)cc2)C(F)(F)F)CC1` the Ki (Human cathepsin S) was under 0.02 µM, the Ki (Human cathepsin L) was 0.021 to 0.5 µM and the Ki (Human cathepsin F) was 0.5 to 5 µM. It also gave a Ki (Human cathepsin B) of 0.021 to 0.5 µM.

`CCC(F)(F)CC[C@H](N[C@@H](c1ccc(F)cc1)C(F)(F)F)C(=O)NC1(C#N)CC1` was tested, and the Ki (Human cathepsin S) was under 0.02 µM.

`CCCCC(F)(F)C[C@H](N[C@@H](c1ccc(F)cc1)C(F)(F)F)C(=O)NC1(C#N)CC1` gave a Ki (Human cathepsin S) of under 0.02 µM.
